These are literature values, as cited in paper PMC8985968, “Purification and characterization of antifungal lipopeptide produced by Bacillus velezensis isolated from raw honey” (PLoS ONE, 2022).

Data set [1] relates to Aspergillus, Fusarium, Chrysosporium, Candida albicans, Trichosporium, Alternaria, and Cladosporium. Particulars: isolated from crude extract of B. subtilis. An excerpt: In a study by Pathak and Keharia (2014), iturin isomers and surfactin families were isolated from crude extract of B. subtilis. […] Similar t ...
A further data set deals with mouse models. As to the method:
The safety of the producer strains and their products need to be evaluated to achieve broader application of iturin A produced by Bacillus species. […] B. velezensis FZB42 type strain, which is closely related to our isolates, was also evaluated by US Environmental Protection Agency (EPA) and considered n ...

As for Iturin A3/A4/A5, the Antifungal spectrum entry in data set [1] was “broad spectrum antifungal activities”. For iturin, the Acute toxicity test entry in the data set on mouse models (intragastric, 7-day, 5000 mg/kg, no significant damage to liver, kidney, or small intestines) is “safe and non-toxic”. The Subacute toxicity test entry with mouse models (intragastric, 28-day, 2000 mg/kg, no significant damage to liver, kidney, or small intestines) is “safe and non-toxic”. Regarding Iturin A2, the Antifungal spectrum entry in data set [1] is on record as “broad spectrum antifungal activities”.

In the case of iturin A, in the data set with mouse models (mouse models), the “Organ-specific toxicity after discontinuation of treatment” value is “reversible”; the “Tissue deposition of iturin A” value is “deposited in liver, lung, and spleen”. For the same substance, the “Toxicity of iturin A in mouse models” value with mouse models (preliminary toxicology study, acute and subacute) is listed as “can induce hepatotoxicity”.
